Results from patent US12433881B2, “Nicotine tablet” (Fertin Pharma A/S, priority 2017, dated 2025).

Conditions: nicotine concentration increased from 100 microgram/mL to 14,000 microgram/mL

## CN1CCCC1c1cccnc1 (stereo not shown) [nicotine]
  change of permeability of nicotine across the buccal mucosa: decrease of about a factor of two
